Patent US20090226500A1, “SUTURES AND ANTI-SCARRING AGENTS” (Angiotech Pharmaceuticals, Inc, priority 2006, published 2009)

How the values were obtained:
[1] = tested on: P. aeruginosa PAE/K799 H187; experiment: MIC microtitre broth dilution, P. aeruginosa; type: cell-based; settings: P. aeruginosa PAE/K799 H187 wt Gram−, 24 h
Procedure: (§1) MIC assays were conducted essentially as described by Amsterdam, D 1996, “Susceptibility testing of antimicrobials in liquid media”, p. 52-111, in Loman, V, ed. Antibiotics in laboratory medicine, 4th ed Williams and Wilkins, Baltimore, Md.

[2] = tested on: K. pneumoniae ATCC13883 C238; experiment: MIC microtitre broth dilution, K. pneumoniae; type: cell-based; settings: K. pneumoniae ATCC13883 C238 wt Gram−, 24 h
Procedure: as §1

[3] = tested on: E. coli UB1005 C498; experiment: MIC microtitre broth dilution, E. coli; type: cell-based; settings: E. coli UB1005 C498 wt Gram−, 24 h
Procedure: as §1

[4] = tested on: S. aureus ATCC25923 C622; experiment: MIC microtitre broth dilution, S. aureus; type: cell-based; settings: S. aureus ATCC25923 C622 wt Gram+, 24 h
Procedure: as §1

[5] = tested on: S. epidermidis C621; experiment: MIC microtitre broth dilution, S. epidermidis; type: cell-based; settings: S. epidermidis C621 wt Gram+, 24 h
Procedure: as §1

[6] = tested on: S. pyogenes C721; experiment: MIC microtitre broth dilution, S. pyogenes; type: cell-based; settings: S. pyogenes C721 wt Gram+, Todd Hewitt broth
Procedure: as §1

[7] = tested on: Smooth muscle cells; experiment: Proliferation of smooth muscle cells; type: cell-based; settings: 72 hours, CYQUANT; read-out: IC50 proliferation of smooth muscle cells
Outline: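 Smooth muscle cells at 600 cells/well, exposed to paclitaxel (DMSO stocks 10^−8 to 10^−2 M) in triplicate for 72 h at 37 °C. Proliferation read with CyQUANT GR dye in lysis buffer.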

[8] = tested on: MCP-1 production by THP-1 cells; experiment: MCP-1 production by macrophages; type: cell-based, human; settings: THP-1 cells stimulated with opsonized zymosan, 24 hours; read-out: IC50 MCP-1 production
Outline: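 THP-1 cells (1×10^6/well, 10% FCS) stimulated with 1 mg/ml serum-opsonized zymosan plus compound added from DMSO stocks at 1/1000, 24 h at 37° C. MCP-1 in supernatants quantified by sandwich ELISA (TMB read-out) against a recombinant human MCP-1 standard curve, triplicates, background-subtracted.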

| SMILES | Minimum inhibitory concentration [1] | Minimum inhibitory concentration [2] | Minimum inhibitory concentration [3] | Minimum inhibitory concentration [4] | Minimum inhibitory concentration [5] | Minimum inhibitory concentration [6] | IC50 [7] [nM] | IC50 [8] [nM] |
| --- | --- | --- | --- | --- | --- | --- | --- | --- |
| CC[C@@]1(O)C(=O)OCc2c1cc1n(c2=O)Cc2cc3ccccc3nc2-1 [camptothecin] | N | N | N | N | 10^−4 Molar | N | – | – |
| N.N.[Cl][Pt][Cl] [cisplatin] | 10^−4 Molar | N | N | N | N | N | – | – |
| Nc1ccn([C@@H]2O[C@H](CO)[C@@H](O)[C@@H]2O)c(=O)n1 [cytarabine] | N | N | N | N | N | N | 85 | – |
| COc1cccc2c1C(=O)c1c(O)c3c(c(O)c1C2=O)C[C@@](O)(C(=O)CO)C[C@@H]3O[C@H]1C[C@H](N)[C@H](O)[C@H](C)O1 [doxorubicin] | 10^−5 Molar | 10^−6 Molar | 10^−4 Molar | 10^−5 Molar | 10^−6 Molar | 10^−7 Molar | 64 | – |
| COc1cc([C@@H]2c3cc4c(cc3[C@@H](O[C@@H]3O[C@@H]5CO[C@@H](C)O[C@H]5[C@H](O)[C@H]3O)[C@H]3COC(=O)[C@H]23)OCO4)cc(OC)c1O [etoposide] | N | 10^−5 Molar | N | 10^−5 Molar | 10^−6 Molar | 10^−5 Molar | 320 | – |
| NC(=O)NO [hydroxyurea] | 10^−4 Molar | N | N | N | N | 10^−4 Molar | – | – |
| CN(Cc1cnc2nc(N)nc(N)c2n1)c1ccc(C(=O)N[C@@H](CCC(=O)O)C(=O)O)cc1 [methotrexate] | N | 10^−6 Molar | N | 10^−5 Molar | N | 10^−6 Molar | – | – |
| Nc1ncnc2c1ccn2[C@@H]1O[C@H](CO)[C@@H](O)[C@H]1O [tubercidin] | N | N | N | N | N | N | 30 | 56 |
